# Assays:
# 4T1 cells = experiment: Cytotoxicity assay (CellTiter-Glo 2.0) on 4T1 cells; type: cell-based, Mouse; conditions: incubation 2 days; for IC50: Mus musculus, 48 h; on Cytotoxicity: test concentration or dose not given here
# In short: (§1)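 Seed cells day 0 in respective growth medium; add compounds; incubate for line-specific time; add CellTiter-Glo 2.0, shake, 10 min RT dark; read luminescence; calculate viability and relative IC50.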
# EoL-1 cells = experiment: Cytotoxicity assay (CellTiter-Glo 2.0) on EoL-1 cells; type: cell-based, Human; conditions: incubation 1 day; for IC50: Homo sapiens, EOL1, 24 h; on Cytotoxicity: test concentration or dose not given here
# In short: as §1
# HUVECs = experiment: Tube formation assay (anti-angiogenic activity); type: cell-based, human; conditions: incubation 16 to 18 hours; for IC50: Homo sapiens, HUVEC; on Angiogenesis inhibition: test concentration or dose not given here
# In short: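 HUVECs plated at 5000 cells/well on reduced growth factor basement membrane matrix, then exposed to compounds for 16 to 18 hours at 37°C. Cells stained with calcein-AM; tube networks imaged by confocal fluorescence microscopy and quantified.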
# RD cells = experiment: Cytotoxicity assay (CellTiter-Glo 2.0) on RD cells; type: cell-based, Human; conditions: for IC50: Homo sapiens; on Cytotoxicity: test concentration or dose not given here
# In short: as §1
# MDA-MB-231 cells = experiment: Cytotoxicity assay (CellTiter-Glo 2.0) on MDA-MB-231 cells; type: cell-based, Human; conditions: incubation 3 days; for IC50: Homo sapiens, 72 h; on Cytotoxicity: test concentration or dose not given here
# In short: as §1
SMILES,IC50 (4T1 cells) [nM],Cytotoxicity (4T1 cells),IC50 (EoL-1 cells) [nM],Cytotoxicity (EoL-1 cells),IC50 (HUVECs) [nM],Angiogenesis inhibition (HUVECs),Cytotoxicity (RD cells; 2 day-treatment),Cytotoxicity (RD cells; 4 day-treatment),"IC50 (RD cells; 48 h, 2 day-treatment) [nM]","IC50 (RD cells; 96 h, 4 day-treatment) [nM]",IC50 (MDA-MB-231 cells) [nM],Cytotoxicity (MDA-MB-231 cells)
"CN(C)Cc1ccc(-n2nc(C(C)(C)C)cc2NC(=O)Nc2ccc(Oc3ccnc4c3CCC(=O)N4)cc2C(F)(F)F)cc1 [Compound 034, 1-[5-tert-butyl-2-[4-[(dimethylamino)methyl]phenyl]pyrazol-3-yl]-3-[4-[(7-oxo-6,8-dihydro-5H-1,8-naphthyridin-4-yl)oxy]-2-(trifluoromethyl)phenyl]urea]",< 1000,+++ (cytotoxicity ≥ 85%),1 to 10,++ (50% ≤ cytotoxicity < 85%),< 100,+++ (angiogenesis inhibition ≥ 80%),+++ (cytotoxicity ≥ 85%),+++ (cytotoxicity ≥ 85%),1000 to 5000,1000 to 5000,1000 to 5000,+++ (cytotoxicity ≥ 85%)
"CSc1cc(Oc2ccnc3c2OCC(=O)N3)ccc1NC(=O)Nc1cc(C(C)(C)C)nn1-c1cccc(CN2CCOCC2)c1 [Compound 035, 1-[5-tert-butyl-2-[3-(morpholinomethyl)phenyl]pyrazol-3-yl]-3-[2-methylsulfanyl-4-[(3-oxo-4H-pyrido[3,2-b][1,4]oxazin-8-yl)oxy]phenyl]urea]",1000 to 5000,+++ (cytotoxicity ≥ 85%),1 to 10,+++ (cytotoxicity ≥ 85%),100 to 500,+++ (angiogenesis inhibition ≥ 80%),++ (50% ≤ cytotoxicity < 85%),++ (50% ≤ cytotoxicity < 85%),1000 to 5000,5000 to 10000,1000 to 5000,+++ (cytotoxicity ≥ 85%)
"CC(C)(C)c1cc(NC(=O)Nc2ccc(Oc3ccnc4c3OCC(=O)N4)cc2C(F)(F)F)on1 [Compound 037, 1-(3-tert-butylisoxazol-5-yl)-3-[4-[(3-oxo-4H-pyrido[3,2-b][1,4]oxazin-8-yl)oxy]-2-(trifluoromethyl)phenyl]urea]",1000 to 5000,+++ (cytotoxicity ≥ 85%),1 to 10,+++ (cytotoxicity ≥ 85%),100 to 500,++ (80% > angiogenesis inhibition ≥ 50%),++ (50% ≤ cytotoxicity < 85%),++ (50% ≤ cytotoxicity < 85%),5000 to 10000,1000 to 5000,1000 to 5000,++ (50% ≤ cytotoxicity < 85%)
"CSc1cc(Oc2ccnc3c2OCC(=O)N3)ccc1NC(=O)Nc1cc(C(C)(C)C)nn1-c1ccc(CN2CCOCC2)cc1 [Compound 038, 1-[5-tert-butyl-2-[4-(morpholinomethyl)phenyl]pyrazol-3-yl]-3-[2-methylsulfanyl-4-[(3-oxo-4H-pyrido[3,2-b][1,4]oxazin-8-yl)oxy]phenyl]urea]",1000 to 5000,+++ (cytotoxicity ≥ 85%),1 to 10,++ (50% ≤ cytotoxicity < 85%),100 to 500,+++ (angiogenesis inhibition ≥ 80%),++ (50% ≤ cytotoxicity < 85%),++ (50% ≤ cytotoxicity < 85%),1000 to 5000,1000 to 5000,1000 to 5000,++ (50% ≤ cytotoxicity < 85%)
"CC(C)(C)c1cc(NC(=O)Nc2ccc(Oc3ccnc4c3OCC(=O)N4)cc2C(F)(F)F)n(-c2cncc(F)c2)n1 [Compound 039, 1-[5-tert-butyl-2-(5-fluoro-3-pyridyl)pyrazol-3-yl]-3-[4-[(3-oxo-4H-pyrido[3,2-b][1,4]oxazin-8-yl)oxy]-2-(trifluoromethyl)phenyl]urea]",< 1000,+++ (cytotoxicity ≥ 85%),10 to 100,++ (50% ≤ cytotoxicity < 85%),< 100,+++ (angiogenesis inhibition ≥ 80%),++ (50% ≤ cytotoxicity < 85%),+ (20 % ≤ cytotoxicity < 50%),1000 to 5000,5000 to 10000,1000 to 5000,++ (50% ≤ cytotoxicity < 85%)
"CSc1cc(Oc2ccnc3c2OCC(=O)N3)ccc1NC(=O)Nc1cc(C(C)(C)C)nn1-c1cccc(CN(C)C)c1 [Compound 041, 1-[5-tert-butyl-2-[3-(dimethylaminomethyl)phenyl]pyrazol-3-yl]-3-[2-methylsulfanyl-4-[(3-oxo-4H-pyrido[3,2-b][1,4]oxazin-8-yl)oxy]phenyl]urea]",< 1000,+++ (cytotoxicity ≥ 85%),1 to 10,+++ (cytotoxicity ≥ 85%),< 100,+++ (angiogenesis inhibition ≥ 80%),+++ (cytotoxicity ≥ 85%),+++ (cytotoxicity ≥ 85%),1000 to 5000,1000 to 5000,1000 to 5000,+++ (cytotoxicity ≥ 85%)
"CSc1cc(Oc2ccnc3c2CCC(=O)N3)ccc1NC(=O)Nc1cc(C(C)(C)C)nn1-c1ccc(CN2CCOCC2)cc1 [Compound 042, 1-[5-tert-butyl-2-[4-(morpholinomethyl)phenyl]pyrazol-3-yl]-3-[2-methylsulfanyl-4-[(7-oxo-6,8-dihydro-5H-1,8-naphthyridin-4-yl)oxy]phenyl]urea]",< 1000,+++ (cytotoxicity ≥ 85%),1 to 10,+++ (cytotoxicity ≥ 85%),< 100,+++ (angiogenesis inhibition ≥ 80%),++ (50% ≤ cytotoxicity < 85%),++ (50% ≤ cytotoxicity < 85%),1000 to 5000,1000 to 5000,1000 to 5000,++ (50% ≤ cytotoxicity < 85%)
"CC(C)(C)c1cc(NC(=O)Nc2ccc(Oc3ccnc4c3OCC(=O)N4)cc2C(F)(F)F)n(-c2ccc(CN3CCOCC3)cc2)n1 [Compound 043, 1-[5-tert-butyl-2-[4-(morpholinomethyl)phenyl]pyrazol-3-yl]-3-[4-[(3-oxo-4H-pyrido[3,2-b][1,4]oxazin-8-yl)oxy]-2-(trifluoromethyl)phenyl]urea]",1000 to 5000,+++ (cytotoxicity ≥ 85%),10 to 100,++ (50% ≤ cytotoxicity < 85%),100 to 500,+++ (angiogenesis inhibition ≥ 80%),+ (20 % ≤ cytotoxicity < 50%),+ (20 % ≤ cytotoxicity < 50%),≥ 10000,≥ 10000,5000 to 10000,++ (50% ≤ cytotoxicity < 85%)
"CC(C)(C)c1cc(NC(=O)Nc2ccc(Oc3ccnc4c3OCC(=O)N4)cc2C(F)(F)F)n(-c2cccc(CN3CCOCC3)c2)n1 [Compound 044, 1-[5-tert-butyl-2-[3-(morpholinomethyl)phenyl]pyrazol-3-yl]-3-[4-[(3-oxo-4H-pyrido[3,2-b][1,4]oxazin-8-yl)oxy]-2-(trifluoromethyl)phenyl]urea]",1000 to 5000,+++ (cytotoxicity ≥ 85%),10 to 100,++ (50% ≤ cytotoxicity < 85%),100 to 500,+++ (angiogenesis inhibition ≥ 80%),+ (20 % ≤ cytotoxicity < 50%),+ (20 % ≤ cytotoxicity < 50%),≥ 10000,≥ 10000,5000 to 10000,+ (20 % ≤ cytotoxicity < 50%)
"CC(C)(C)c1cc(NC(=O)Nc2ccc(Oc3ccnc4c3CCC(=O)N4)cc2C(F)(F)F)n(-c2cccc(CN3CCOCC3)c2)n1 [Compound 045, 1-[5-tert-butyl-2-[3-(morpholinomethyl)phenyl]pyrazol-3-yl]-3-[4-[(7-oxo-6,8-dihydro-5H-1,8-naphthyridin-4-yl)oxy]-2-(trifluoromethyl)phenyl]urea]",< 1000,+++ (cytotoxicity ≥ 85%),10 to 100,++ (50% ≤ cytotoxicity < 85%),100 to 500,+++ (angiogenesis inhibition ≥ 80%),+ (20 % ≤ cytotoxicity < 50%),+ (20 % ≤ cytotoxicity < 50%),5000 to 10000,5000 to 10000,1000 to 5000,++ (50% ≤ cytotoxicity < 85%)
"CSc1cc(Oc2ccnc3c2CCC(=O)N3)ccc1NC(=O)Nc1cc(C(C)(C)C)nn1-c1ccc(CN(C)C)cc1 [Compound 046, 1-[5-tert-butyl-2-[4-(dimethylaminomethyl)phenyl]pyrazol-3-yl]-3-[2-methylsulfanyl-4-[(7-oxo-6,8-dihydro-5H-1,8-naphthyridin-4-yl)oxy]phenyl]urea]",< 1000,+++ (cytotoxicity ≥ 85%),< 1,+++ (cytotoxicity ≥ 85%),< 100,+++ (angiogenesis inhibition ≥ 80%),+++ (cytotoxicity ≥ 85%),+++ (cytotoxicity ≥ 85%),5000 to 10000,1000 to 5000,1000 to 5000,+++ (cytotoxicity ≥ 85%)

# Reference: patent EP4289427A1, “DIHYDRO[1,8]NAPHTHYRIDIN-7-ONE AND PYRIDO[3,2-B][1,4]OXAZIN-3-ONE FOR USE IN TREATING CANCER, AND METASTASES IN PARTICULAR” (Anagenesis Biotechnologies, priority 2022, dated 2023)
